Experimental data reported in patent publication US7687609B2, “Galectin-glycosaminoglycan complex and method for controlling galectin activity” (National Institute of Advanced Industrial Science and …, priority 2006, dated 2010).
Entries after “also recorded” stand apart in the source; their conditions may differ.

Experiments:
Test in all cases: FAC affinity test on galectin-immobilized column
Type in all cases: binding
Galectin-9N = biological target: T1, Galectin-9N (Homo sapiens, UniProt O00182); settings: for V − V0 Value: pyridyl-aminated carbohydrate, galectin-9N immobilized 3.6 mg/ml, less than 5 μl = below interaction detection limit; for binding to galectin-9N (in words): text statement on the FAC results
T1 construct: N and C respectively represent N-terminal side carbohydrate-recognition domain and C-terminal side carbohydrate-recognition domain; made in house
Description: (§1) Various galectin molecules-immobilized columns were prepared by the method described by Nakamura S, Yagi F, Totani K, Ito γ and Hirabayashi J in FEBS J., 272, 2784-2799 (2005), using NHS Sepharose (manufactured by Amersham Bioscience) as the carrier for immobilizing galectin molecules and in accordance with the instructions attached thereto (put in parentheses is immobilization concentration, mg galectin/ml carrier).
(§2) Each galectin molecule was immobilized onto the carrier at the following concentration; galectin-1 (0.8 mg/ml), galectin-3 (0.5 mg/ml), galectin-8N (3.6 mg/ml), galectin-8C (4.0 mg/ml), galectin-9N (3.6 mg/ml), galectin-9C (3.0 mg/ml). The carrier on which each galectin was immobilized was charged into a stainless steel miniature column (2 mm in inner diameter, 10 mm in length; manufactured by Shimadzu Corp.).
(§3) A high performance liquid chromatography (HPLC) system was equipped with a galectin molecule-immobilized column, and the test was carried out by the method described in Nakamura S, Yagi F, Totani K, Ito γ and Hirabayashi J in FEBS J., 272, 2784-2799 (2005).
(§4) As the negative control sample, pyridyl-aminated N-acetylglucosamine (PA-GlcNAc, manufactured by Takara Bio, pyridyl-aminated glycosaminoglycan-oligosaccharide sample control) or pyridyl-aminated pullulan (prepared by carrying out pyridylamination of standard pullulan manufactured by Shodex, pyridyl-aminated glycosaminoglycan polysaccharide sample control) was used, and a V−V0 value was calculated from their eluate volume (V0 value) measured by fluorescence detection and the eluate volume (V value) of the sample, namely pyridyl-aminated glycosaminoglycan carbohydrate, and this was used as the index of interaction strength (Protein, Nucleic Acid and Enzyme, 48(8), 1206-1212 (2003)).
(§5) V−V0 values of pyridyl-aminated glycosaminoglycans (HA, CH, DN, NAH, CSA, CSB, CSC, CSD, CSE, KS-I and KS-II) were calculated based on PA-GlcNAc, and V−V0 values of pyridyl-aminated glycosaminoglycan-oligosaccharides (G2K1, G1L1, G4L4, L2L2, L2L4, L4L4, SL2L4 and CH3 to CH12) based on pyridyl-aminated pullulan, respectively.
(§6) In this connection, when the calculated value of the V−V0 value was less than 5 μl, it was regarded as less than the interaction detection limit in this example.

Galectin-3 = biological target: T2, Galectin-3 (Homo sapiens, UniProt P17931); settings: for V − V0 Value: pyridyl-aminated carbohydrate, galectin-3 immobilized 0.5 mg/ml, less than 5 μl = below interaction detection limit; for binding to galectin-3 (in words): text statement on the FAC results
T2 construct: made in house
Description: as §1, §2, §3, §4, §5, §6

Galectin-1 = biological target: T3, Galectin-1 (Homo sapiens, UniProt P09382); settings: pyridyl-aminated carbohydrate; galectin-1 immobilized 0.8 mg/ml; less than 5 μl = below interaction detection limit
T3 construct: made in house
Description: as §1, §2, §3, §4, §5, §6

Galectin-8N = biological target: T4, Galectin-8N (Homo sapiens, UniProt O00214); settings: pyridyl-aminated carbohydrate; galectin-8N immobilized 3.6 mg/ml; less than 5 μl = below interaction detection limit
T4 construct: N and C respectively represent N-terminal side carbohydrate-recognition domain and C-terminal side carbohydrate-recognition domain; made in house
T4 sequence (O00214 19-152 limits assumed): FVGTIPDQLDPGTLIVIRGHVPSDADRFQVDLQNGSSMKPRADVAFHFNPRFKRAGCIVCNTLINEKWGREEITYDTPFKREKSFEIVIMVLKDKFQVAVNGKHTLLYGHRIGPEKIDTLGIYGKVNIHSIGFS
Description: as §1, §2, §3, §4, §5, §6

Galectin-8C = biological target: T5, Galectin-8C (Homo sapiens, UniProt O00214); settings: pyridyl-aminated carbohydrate; galectin-8C immobilized 4.0 mg/ml; less than 5 μl = below interaction detection limit
T5 construct: N and C respectively represent N-terminal side carbohydrate-recognition domain and C-terminal side carbohydrate-recognition domain; made in house
T5 sequence (O00214 187-317 limits assumed): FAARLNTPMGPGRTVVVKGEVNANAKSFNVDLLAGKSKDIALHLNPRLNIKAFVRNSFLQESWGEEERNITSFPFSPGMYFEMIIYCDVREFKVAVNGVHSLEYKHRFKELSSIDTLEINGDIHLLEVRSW
Description: as §1, §2, §3, §4, §5, §6

Galectin-9C = biological target: T6, Galectin-9C (Homo sapiens, UniProt O00182); settings: for V − V0 Value: pyridyl-aminated carbohydrate, galectin-9C immobilized 3.0 mg/ml, less than 5 μl = below interaction detection limit
T6 construct: N and C respectively represent N-terminal side carbohydrate-recognition domain and C-terminal side carbohydrate-recognition domain; made in house
Description: as §1, §2, §3, §4, §5, §6

T3 sequence (P09382 whole entry): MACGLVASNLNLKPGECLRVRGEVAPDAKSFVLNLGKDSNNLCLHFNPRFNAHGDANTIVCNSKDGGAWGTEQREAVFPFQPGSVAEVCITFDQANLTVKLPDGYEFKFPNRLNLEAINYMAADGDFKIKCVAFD
T1 sequence (O00182 17-148 limits assumed): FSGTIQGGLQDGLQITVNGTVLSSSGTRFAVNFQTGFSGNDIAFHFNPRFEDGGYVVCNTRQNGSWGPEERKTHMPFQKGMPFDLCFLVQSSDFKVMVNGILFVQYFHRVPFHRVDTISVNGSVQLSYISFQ
T6 sequence (O00182 227-355 limits assumed): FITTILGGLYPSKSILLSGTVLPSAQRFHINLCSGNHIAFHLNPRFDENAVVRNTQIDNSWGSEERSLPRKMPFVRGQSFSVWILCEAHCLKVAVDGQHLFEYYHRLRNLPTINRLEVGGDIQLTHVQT
T2 sequence (P17931 whole entry): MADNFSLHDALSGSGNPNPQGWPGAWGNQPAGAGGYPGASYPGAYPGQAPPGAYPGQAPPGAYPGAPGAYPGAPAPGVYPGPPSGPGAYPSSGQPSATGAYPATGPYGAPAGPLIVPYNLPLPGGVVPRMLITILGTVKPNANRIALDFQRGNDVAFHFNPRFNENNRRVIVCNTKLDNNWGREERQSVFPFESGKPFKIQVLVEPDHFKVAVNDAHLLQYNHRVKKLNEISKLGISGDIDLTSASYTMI

Row | V − V0 Value (Galectin-9N) | V − V0 Value (Galectin-3) | V − V0 Value (Galectin-1) | V − V0 Value (Galectin-8N) | binding to galectin-9N (in words) (Galectin-9N; listed as chondroitin) | binding to galectin-3 (in words) (Galectin-3; listed as chondroitin) | V − V0 Value (Galectin-8C) | V − V0 Value (Galectin-9C) | Molecule | binding to galectin-9N (in words) (Galectin-9N) | binding to galectin-3 (in words) (Galectin-3) | binding to galectin-9C (in words) (Galectin-9C; text statement on the FAC results)
1 | 196.0 µL | 16.8 ± 2.1 µL |  |  |  |  |  |  | CC(=O)NC1C(O)OC(CO)C(O)C1OC1OC(C(=O)O)C(OC2OC(CO)C(O)C(OC3OC(C(=O)O)C(OC4OC(CO)C(O)C(OC5OC(C(=O)O)C(OC6OC(CO)C(O)C(OC7OC(C(=O)O)C(OC8OC(CO)C(O)C(OC9OC(C(=O)O)C(OC%10OC(CO)C(O)C(OC%11OC(C(=O)O)C(O)C(O)C%11O)C%10NC(C)=O)C(O)C9O)C8NC(C)=O)C(O)C7O)C6NC(C)=O)C(O)C5O)C4NC(C)=O)C(O)C3O)C2NC(C)=O)C(O)C1O (stereo not drawn) [CH12, GlcA β1-3 (GalNAc β1-4 GlcA β1-3)5 GalNAc] |  |  | 
2 | 45.6 ± 4.6 µL | <5.0 µL | <5.0 µL |  |  |  |  |  | CC(=O)N[C@H]1[C@H](O[C@H]2[C@H](O)[C@@H](O)[C@H](O[C@H]3[C@@H](O)[C@@H](CO)O[C@@H](O[C@H]4[C@H](O)[C@@H](O)[C@H](O[C@H]5[C@@H](O)[C@@H](CO)OC(O)[C@@H]5NC(C)=O)O[C@@H]4C(=O)O)[C@@H]3NC(C)=O)O[C@@H]2C(=O)O)O[C@H](CO)[C@H](O)[C@@H]1O (stereo partly drawn) [CH5, (GalNAc β1-4 GlcA β1-3)2 GalNAc] |  |  | 
3 | 49.6 ± 8.2 µL | <5.0 µL | <5.0 µL |  |  |  |  |  | CC(=O)N[C@H]1[C@H](O[C@H]2[C@H](O)[C@@H](O)[C@H](O[C@H]3[C@@H](O)[C@@H](CO)OC(O)[C@@H]3NC(C)=O)O[C@@H]2C(=O)O)O[C@H](CO)[C@H](O)[C@@H]1O (stereo partly drawn) [CH3, GalNAc β1-4 GlcA β1-3 GalNAc] |  |  | 
4 | 171.4 ± 19.0 µL | 19.2 ± 2.2 µL | <5.0 µL | <5.0 µL | particularly strong binding affinity | length-dependent binding affinity | <5.0 µL | <5.0 µL | Chondroitin | bind | bind | 
5 | 218.8 µL | 21.4 ± 4.2 µL |  |  |  |  |  |  | CC(=O)NC1C(OC2C(C(=O)O)OC(OC3C(O)C(CO)OC(OC4C(C(=O)O)OC(OC5C(O)C(CO)OC(OC6C(C(=O)O)OC(OC7C(O)C(CO)OC(OC8C(C(=O)O)OC(OC9C(O)C(CO)OC(OC%10C(C(=O)O)OC(OC%11C(O)C(CO)OC(O)C%11NC(C)=O)C(O)C%10O)C9NC(C)=O)C(O)C8O)C7NC(C)=O)C(O)C6O)C5NC(C)=O)C(O)C4O)C3NC(C)=O)C(O)C2O)OC(CO)C(O)C1O (stereo not drawn) [CH11, (GalNAc β1-4 GlcA β1-3)5 GalNAc] |  |  | 
6 | 146.4 µL | 10.7 ± 1.9 µL | <5.0 µL |  |  |  |  | <5.0 µL | CC(=O)N[C@H]1[C@H](O[C@H]2[C@H](O)[C@@H](O)[C@H](O[C@H]3[C@@H](O)[C@@H](CO)O[C@@H](O[C@H]4[C@H](O)[C@@H](O)[C@H](O[C@H]5[C@@H](O)[C@@H](CO)O[C@@H](O[C@H]6[C@H](O)[C@@H](O)[C@H](O[C@H]7[C@@H](O)[C@@H](CO)OC(O)[C@@H]7NC(C)=O)O[C@@H]6C(=O)O)[C@@H]5NC(C)=O)O[C@@H]4C(=O)O)[C@@H]3NC(C)=O)O[C@@H]2C(=O)O)O[C@H](CO)[C@H](O)[C@@H]1O (stereo partly drawn) [CH7, (GalNAc β1-4 GlcA β1-3)3 GalNAc] |  |  | 
7 | 10.4 ± 0.3 µL | 10.1 ± 1.1 µL | <5.0 µL | <5.0 µL |  |  | <5.0 µL | 6.4 ± 1.0 µL | cartilage type keratan sulfate [KS-II] | weaker than their binding with KS-I; also recorded: showed binding affinity | weaker than their binding with KS-I; also recorded: showed binding affinity | weaker than their binding with KS-I; also recorded: showed binding affinity
